Results from patent publication US20260007681A1, “INDOLE DERIVATIVES AS ESTROGEN RECEPTOR DEGRADERS” (REGENTS OF THE UNIVERSITY OF MICHIGAN, priority 2022, published 2026).
Read-outs that look alike come from different tables or passages of the source.

What was measured:
[1] = Cell growth assay (WST-8) (Compounds B1-B278); assay type: cell-based; conditions: T47D cell line, WST-8, 4 days, read-out: Cell Growth Inhibition in T47D cell line IC50
In short: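 Cells seeded at 1500/well overnight, treated one day later with compound doses for 4 days, then 10% WST-8 added for 2.5 h at 37° C in CO2. Absorbance at 450 nm, expressed relative to vehicle control over three independent repeats.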

ER = ER (Homo sapiens (Human), UniProt P03372); assay: In-cell western blot analysis of relative ER percentage (Compounds B1-B278); assay type: cell-based; conditions: ER degradation, 16 hours, read-out: ICW DC50
In short: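 Cells seeded at 40,000 or 10,000 cells/well and treated with compound (final 0.5% DMSO) for 16 h, then formaldehyde-fixed, Triton-permeabilized and co-stained for ER and GAPDH with 680/800 secondaries; LI-COR plate read. ER level expressed relative to untreated/DMSO-treated wells set at 100%.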

Chain of ER (P03372 whole entry): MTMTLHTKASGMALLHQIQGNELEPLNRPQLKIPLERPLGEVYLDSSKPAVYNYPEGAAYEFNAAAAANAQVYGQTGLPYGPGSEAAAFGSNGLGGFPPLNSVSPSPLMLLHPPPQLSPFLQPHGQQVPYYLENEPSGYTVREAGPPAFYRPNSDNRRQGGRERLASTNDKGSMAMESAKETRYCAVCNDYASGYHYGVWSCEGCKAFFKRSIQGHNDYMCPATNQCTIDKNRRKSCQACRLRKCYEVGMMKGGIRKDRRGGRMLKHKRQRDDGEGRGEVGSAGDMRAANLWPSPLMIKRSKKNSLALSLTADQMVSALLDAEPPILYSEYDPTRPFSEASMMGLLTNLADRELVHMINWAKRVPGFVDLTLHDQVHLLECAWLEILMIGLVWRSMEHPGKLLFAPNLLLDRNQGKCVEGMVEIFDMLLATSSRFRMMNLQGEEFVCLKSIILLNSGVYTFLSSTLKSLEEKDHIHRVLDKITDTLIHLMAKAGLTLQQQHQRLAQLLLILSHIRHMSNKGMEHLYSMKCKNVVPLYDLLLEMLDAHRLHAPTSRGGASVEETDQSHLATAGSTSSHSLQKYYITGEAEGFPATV

| SMILES | DC50 (ER) | IC50 ([1]; 96 h) | IC50 [1] |
| --- | --- | --- | --- |
| C[C@@H]1Cc2c([nH]c3ccccc23)[C@@H](c2cnc(N3CCC4(CC3)CC(N3CCN5c6ccc7c(c6OC[C@H]5C3)CN(C3CCC(=O)NC3=O)C7=O)C4)nc2)N1CC(F)F (stereo partly drawn) [Compound B155, 3-((R)-7-(7-(5-((1R,3R)-2-(2,2-difluoroethyl)-3-methyl-2,3,4,9-tetrahydro-1H-pyrido[3,4-b]indol-1-yl)pyrimidin-2-yl)-7-azaspiro[3.5]nonan-2-yl)-1-oxo-1,3,5,5a,6,7,8,9-octahydro-2H-pyrazino[1′,2′:4,5][1,4]oxazino[2,3-e]isoindol-2-yl)piperidine-2,6-dione] | > 100 nM | 1 to 10 nM |  |
| C[C@@H]1Cc2c([nH]c3ccccc23)[C@@H](c2cnc(N3CCC4(CC3)CC(CN3CCN5c6ccc7c(c6OC[C@@H]5C3)CN(C3CCC(=O)NC3=O)C7=O)C4)nc2)N1CC(F)F (stereo partly drawn) [Compound B264, 3-((S)-7-((7-(5-((1R,3R)-2-(2,2-difluoroethyl)-3-methyl-2,3,4,9-tetrahydro-1H-pyrido[3,4-b]indol-1-yl)pyrimidin-2-yl)-7-azaspiro[3.5]nonan-2-yl)methyl)-1-oxo-1,3,5,5a,6,7,8,9-octahydro-2H-pyrazino[1′,2′:4,5][1,4]oxazino[2,3-e]isoindol-2-yl)piperidine-2,6-dione] | 10 to 100 nM | 1 to 10 nM |  |
| C[C@@H]1Cc2c([nH]c3ccccc23)[C@@H](c2cnc(N3CCC(CN4CCN5c6ccc7c(c6OC[C@H]5C4)CN(C4CCC(=O)NC4=O)C7=O)CC3)nc2)N1CC(C)(C)F (mixture of isomers) [Compound B256, 3-((RS)-7-((1-(5-((1R,3R)-2-(2-fluoro-2-methylpropyl)-3-methyl-2,3,4,9-tetrahydro-1H-pyrido[3,4-b]indol-1-yl)pyrimidin-2-yl)piperidin-4-yl)methyl)-1-oxo-1,3,5,5a,6,7,8,9-octahydro-2H-pyrazino[1′,2′:4,5][1,4]oxazino[2,3-e]isoindol-2-yl)piperidine-2,6-dione] | > 100 nM | < 1 nM |  |
| C[C@@H]1Cc2c([nH]c3ccccc23)[C@@H](c2cnc(N3CCC4(CC3)CC(N3CCN5c6ccc7c(c6OC[C@H]5C3)CN(C3CCC(=O)NC3=O)C7=O)CO4)nc2)N1CC(F)F (stereo partly drawn) [Compound B166, 3-((5aR)-7-(8-(5-((1R,3R)-2-(2,2-difluoroethyl)-3-methyl-2,3,4,9-tetrahydro-1H-pyrido[3,4-b]indol-1-yl)pyrimidin-2-yl)-1-oxa-8-azaspiro[4.5]dccan-3-yl)-1-oxo-1,3,5,5a,6,7,8,9-octahydro-2H-pyrazino[1′,2′:4,5][1,4]oxazino[2,3-e]isoindol-2-yl)piperidine-2,6-dione] | 10 to 100 nM | 1 to 10 nM |  |
| C[C@@H]1Cc2c([nH]c3ccccc23)[C@@H](c2c(F)cc(N3CCC4(CC3)CC(CN3CCN5c6ccc7c(c6OC[C@H]5C3)CN(C3CCC(=O)NC3=O)C7=O)CO4)cc2F)N1CC(F)(F)CO (stereo partly drawn) [Compound B266, 3-((5aR)-7-((8-(4-((1R,3R)-2-(2,2-difluoro-3-hydroxypropyl)-3-methyl-2,3,4,9-tetrahydro-1H-pyrido[3,4-b]indol-1-yl)-3,5-difluorophenyl)-1-oxa-8-azaspiro[4.5]decan-3-yl)methyl)-1-oxo-1,3,5,5a,6,7,8,9-octahydro-2H-pyrazino[1′,2′:4,5][1,4]oxazino[2,3-e]isoindol-2-yl)piperidine-2,6-dione] | 10 to 100 nM | 1 to 10 nM |  |
| C[C@@H]1Cc2c([nH]c3ccccc23)[C@@H](c2cnc(N3CC4(CCC(N5CCN6c7ccc8c(c7OC[C@H]6C5)CN(C5CCC(=O)NC5=O)C8=O)CC4)C3)nc2)N1CC(F)(F)CO (stereo partly drawn) [Compound B158, 3-((R)-7-(2-(5-((1R,3R)-2-(2,2-difluoro-3-hydroxypropyl)-3-methyl-2,3,4,9-tetrahydro-1H-pyrido[3,4-b]indol-1-yl)pyrimidin-2-yl)-2-azaspiro[3.5]nonan-7-yl)-1-oxo-1,3,5,5a,6,7,8,9-octahydro-2H-pyrazino[1′,2′:4,5][1,4]oxazino[2,3-e]isoindol-2-yl)piperidine-2,6-dione] | > 100 nM | < 1 nM |  |
| C[C@@H]1Cc2c([nH]c3ccccc23)[C@@H](c2c(F)cc(N3CCC4(CC3)CN(CC(=O)N3CCN5c6ccc7c(c6OC[C@H]5C3)CN(C3CCC(=O)NC3=O)C7=O)C4)cc2F)N1CC(F)F (stereo partly drawn) [Compound B177, 3-((R)-7-(2-(7-(4-((1R,3R)-2-(2,2-difluoroethyl)-3-methyl-2,3,4,9-tetrahydro-1H-pyrido[3,4-b]indol-1-yl)-3,5-difluorophenyl)-2,7-diazaspiro[3.5]nonan-2-yl)acetyl)-1-oxo-1,3,5,5a,6,7,8,9-octahydro-2H-pyrazino[1′,2′:4,5][1,4]oxazino[2,3-e]isoindol-2-yl)piperidine-2,6-dione] | 10 to 100 nM | < 1 nM |  |
| C[C@@H]1Cc2c([nH]c3ccccc23)[C@@H](c2c(F)cc(N3CC[C@H](CN4CCN5c6ccc7c(c6OC[C@H]5C4)CN(C4CCC(=O)NC4=O)C7=O)C3)cc2F)N1CC(F)(F)CO (stereo partly drawn) [Compound B150, 3-((R)-7-(((R)-1-(4-((1R,3R)-2-(2,2-difluoro-3-hydroxypropyl)-3-methyl-2,3,4,9-tetrahydro-1H-pyrido[3,4-b]indol-1-yl)-3,5-difluorophenyl)pyrrolidin-3-yl)methyl)-1-oxo-1,3,5,5a,6,7,8,9-octahydro-2H-pyrazino[1′,2′:4,5][1,4]oxazino[2,3-e]isoindol-2-yl)piperidine-2,6-dione] | 10 to 100 nM | 1 to 10 nM |  |

The next lines start with results.

| DC50 (ER) | SMILES | IC50 ([1]; 96 h) | IC50 [1] |
| --- | --- | --- | --- |
| 10 to 100 nM | COc1cc(N2CC3(CCC(CN4CCN5c6ccc7c(c6OC[C@H]5C4)CN(C4CCC(=O)NC4=O)C7=O)CO3)C2)ccc1[C@@H]1c2[nH]c3ccccc3c2C[C@@H](C)N1CC(F)F (stereo partly drawn) [Compound B277, 3-((5aR)-7-((2-(4-((1R,3R)-2-(2,2-difluoroethyl)-3-methyl-2,3,4,9-tetrahydro-1H-pyrido[3,4-b]indol-1-yl)-3-methoxyphenyl)-5-oxa-2-azaspiro[3.5]nonan-7-yl)methyl)-1-oxo-1,3,5,5a,6,7,8,9-octahydro-2H-pyrazino[1′,2′:4,5][1,4]oxazino[2,3-e]isoindol-2-yl)piperidine-2,6-dione] | 1 to 10 nM |  |
| < 10 nM | COc1cc(N2CCC3(CC2)CC(CN2CCN4c5ccc6c(c5OC[C@H]4C2)CN(C2CCC(=O)NC2=O)C6=O)CO3)ccc1[C@@H]1c2[nH]c3ccccc3c2C[C@@H](C)N1CC(F)F (stereo partly drawn) [Compound B144, (3S)-3-((5aR)-7-((8-(4-((1R,3R)-2-(2,2-difluoroethyl)-3-methyl-2,3,4,9-tetrahydro-1H-pyrido[3,4-b]indol-1-yl)-3-methoxyphenyl)-1-oxa-8-azaspiro[4.5]dccan-3-yl)methyl)-1-oxo-1,3,5,5a,6,7,8,9-octahydro-2H-pyrazino[1′,2′:4,5][1,4]oxazino[2,3-e]isoindol-2-yl)piperidine-2,6-dione] |  | < 1 nM |
| 10 to 100 nM | C[C@@H]1Cc2c([nH]c3ccccc23)[C@@H](c2cnc(N3CC4(CCC(CN5CCN6c7ccc8c(c7OC[C@@H]6C5)CN(C5CCC(=O)NC5=O)C8=O)CC4)C3)nc2)N1CC(F)F (stereo partly drawn) [Compound B263, 3-((S)-7-((2-(5-((1R,3R)-2-(2,2-difluoroethyl)-3-methyl-2,3,4,9-tetrahydro-1H-pyrido[3,4-b]indol-1-yl)pyrimidin-2-yl)-2-azaspiro[3.5]nonan-7-yl)methyl)-1-oxo-1,3,5,5a,6,7,8,9-octahydro-2H-pyrazino[1′,2′:4,5][1,4]oxazino[2,3-e]isoindol-2-yl)piperidine-2,6-dione] | 1 to 10 nM |  |
